pIC50: −log10 of the molar value.
Tests used:
phosphor-Axl = phosphor-Axl (Homo sapiens (Human), UniProt P30530); experiment: TAM Enzymatic Assay (HTRF), Axl; type: biochemical; conditions: recombinant autophosphorylated Axl, 60 min, room temperature
Experimental: Autophosphorylation of Axl was carried out by incubating the recombinant Axl protein (Life Technologies, PV4275) in buffer containing 50 mM Tris, pH7.5, 0.2 mg/ml Axl, 5 mM ATP, 20 mM MgCl2 and 2 mM DTT at room temperature for 1 hour.
(§1) The kinase assay buffer contained 50 mM HEPES, pH7.5, 10 mM MgCl2, 1 mM EGTA, 0.01% NP-40 and 2 mM DTT. 0.1 ul test compounds dissolved in DMSO were transferred from compound plates to white 384-well assay plates (Greiner […] plates). […] 4 ul enzyme solution (or assay buffer for the enzyme blank) was added to the appropriate wells in each plate, and then 4 ul/well substrate solution was added to initiate the reaction. The plate was protected from light and incubated at room temperature for 60 min. […] The plate was incubated for 1 h at room temperature, and HTRF (homogenous time resolved fluorescence) signal was measured on a PHERAstar FS plate reader (BMG labtech). Percentage of inhibition was calculated for each concentration and IC50 value was generated from curve fitting with GraphPad Prism software.

Tyro3 = Tyro3 (Homo sapiens (Human), UniProt Q06418); experiment: TAM Enzymatic Assay (HTRF), Tyro3; type: biochemical; conditions: Tyro3, 60 min, room temperature
Experimental: as §1

Chain of phosphor-Axl (P30530 26-894): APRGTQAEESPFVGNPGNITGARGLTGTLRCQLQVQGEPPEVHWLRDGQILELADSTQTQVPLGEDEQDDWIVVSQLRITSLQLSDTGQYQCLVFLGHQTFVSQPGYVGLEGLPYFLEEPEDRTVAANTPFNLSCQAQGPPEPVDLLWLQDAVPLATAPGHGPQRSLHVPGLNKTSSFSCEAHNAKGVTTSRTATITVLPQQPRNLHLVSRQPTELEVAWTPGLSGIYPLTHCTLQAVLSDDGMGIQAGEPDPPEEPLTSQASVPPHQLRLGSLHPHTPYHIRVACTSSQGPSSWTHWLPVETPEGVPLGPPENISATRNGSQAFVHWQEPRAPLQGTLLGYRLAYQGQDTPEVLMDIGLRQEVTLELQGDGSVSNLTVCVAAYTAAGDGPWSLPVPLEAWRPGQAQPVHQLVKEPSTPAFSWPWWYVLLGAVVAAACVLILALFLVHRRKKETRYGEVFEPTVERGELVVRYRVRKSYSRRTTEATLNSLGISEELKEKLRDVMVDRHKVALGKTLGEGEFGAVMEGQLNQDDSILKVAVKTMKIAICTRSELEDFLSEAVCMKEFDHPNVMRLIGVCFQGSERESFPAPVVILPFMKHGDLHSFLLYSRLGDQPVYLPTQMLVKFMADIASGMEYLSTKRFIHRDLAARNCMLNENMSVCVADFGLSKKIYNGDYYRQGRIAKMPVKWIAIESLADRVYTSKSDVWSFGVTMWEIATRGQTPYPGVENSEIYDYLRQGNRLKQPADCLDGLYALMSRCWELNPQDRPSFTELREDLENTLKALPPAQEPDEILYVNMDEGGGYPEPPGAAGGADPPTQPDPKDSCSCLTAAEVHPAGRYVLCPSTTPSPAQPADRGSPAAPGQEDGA
Chain of Tyro3 (Q06418 41-890): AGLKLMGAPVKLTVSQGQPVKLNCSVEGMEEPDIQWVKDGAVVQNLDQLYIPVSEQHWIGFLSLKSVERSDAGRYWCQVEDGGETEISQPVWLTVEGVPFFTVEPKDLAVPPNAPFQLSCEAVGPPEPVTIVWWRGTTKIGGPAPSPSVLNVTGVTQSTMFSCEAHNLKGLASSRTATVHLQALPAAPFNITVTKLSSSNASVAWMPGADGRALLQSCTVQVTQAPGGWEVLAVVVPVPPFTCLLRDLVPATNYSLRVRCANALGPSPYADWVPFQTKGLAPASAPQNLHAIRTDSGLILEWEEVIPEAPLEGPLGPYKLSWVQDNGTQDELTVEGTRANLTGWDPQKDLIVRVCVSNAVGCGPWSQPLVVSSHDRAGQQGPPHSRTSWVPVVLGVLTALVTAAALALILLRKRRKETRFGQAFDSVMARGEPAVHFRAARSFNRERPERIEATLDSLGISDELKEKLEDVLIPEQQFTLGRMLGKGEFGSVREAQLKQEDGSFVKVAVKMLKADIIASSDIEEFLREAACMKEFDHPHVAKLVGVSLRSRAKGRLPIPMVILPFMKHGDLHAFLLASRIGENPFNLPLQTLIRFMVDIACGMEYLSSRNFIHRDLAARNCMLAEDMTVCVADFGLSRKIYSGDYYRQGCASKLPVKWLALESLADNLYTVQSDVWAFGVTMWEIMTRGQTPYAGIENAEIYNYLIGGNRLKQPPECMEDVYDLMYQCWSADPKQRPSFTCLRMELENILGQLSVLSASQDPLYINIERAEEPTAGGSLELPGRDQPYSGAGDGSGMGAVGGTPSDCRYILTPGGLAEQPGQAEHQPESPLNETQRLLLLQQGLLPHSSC

| pIC50 (phosphor-Axl) | pIC50 (Tyro3) | SMILES |
| --- | --- | --- |
| ≥ 8.30 | < 7.00 | CCN(C)C(=O)N1CCC(c2cc(-c3ccc(NC(=O)c4cc5c(n(-c6ccc(F)cc6)c4=O)CCCC5=O)cc3)c3c(N)ncnn23)CC1 [Example 57, N-{4-[4-Amino-7-(1-{[ethyl(methyl)amino]carbonyl}piperidin-4-yl)pyrrolo[2,1-f][1,2,4]triazin-5-yl]phenyl}-1-(4-fluorophenyl)-2,5-dioxo-1,2,5,6,7,8-hexahydroquinoline-3-carboxamide] |
| ≥ 8.30 | < 7.00 | CCN(C)C(=O)N1CCC(c2cc(-c3ccc(NC(=O)c4cc5c(n(-c6ccc(F)cc6)c4=O)CCCC5=O)cc3F)c3c(N)ncnn23)CC1 [Example 58, N-{4-[4-Amino-7-(1-{[ethyl(methyl)amino]carbonyl}piperidin-4-yl)pyrrolo[2,1-f][1,2,4]triazin-5-yl]-3-fluorophenyl}-1-(4-fluorophenyl)-2,5-dioxo-1,2,5,6,7,8-hexahydroquinoline-3-carboxamide] |
| ≥ 8.30 | < 7.00 | Nc1ncnn2c(C3CCN(CCO)CC3)cc(-c3ccc(NC(=O)c4cc5c(n(-c6ccc(F)cc6)c4=O)CCCC5=O)cc3)c12 [Example 59, N-(4-{4-Amino-7-[1-(2-hydroxyethyl)piperidin-4-yl]pyrrolo[2,1-f][1,2,4]triazin-5-yl}phenyl)-1-(4-fluorophenyl)-2,5-dioxo-1,2,5,6,7,8-hexahydroquinoline-3-carboxamide] |
| ≥ 8.30 | < 7.00 | CCN(C)C(=O)N1CCC(c2cc(-c3ccc(NC(=O)c4cn(C(C)C)c(=O)n(-c5ccccc5F)c4=O)cc3)c3c(N)ncnn23)CC1 [Example 69, N-(4-(4-Amino-7-(1-(ethyl(methyl)carbamoyl)piperidin-4-yl)pyrrolo[1,2-f][1,2,4]triazin-5-yl)phenyl)-3-(2-fluorophenyl)-1-isopropyl-2,4-dioxo-1,2,3,4-tetrahydropyrimidine-5-carboxamide] |
| ≥ 8.30 | < 7.00 | CCn1cc(C(=O)Nc2ccc(-c3cc(C4CCN(C(=O)N(C)C)CC4)n4ncnc(N)c34)cc2)c(=O)n(-c2cccc(F)c2)c1=O [Example 72, N-(4-(4-Amino-7-(1-(dimethylcarbamoyl)piperidin-4-yl)pyrrolo[1,2-f][1,2,4]triazin-5-yl)phenyl)-1-ethyl-3-(3-fluorophenyl)-2,4-dioxo-1,2,3,4-tetrahydropyrimidine-5-carboxamide] |
| ≥ 8.30 | < 7.00 | CCn1cc(C(=O)Nc2ccc(-c3cc(C4CCN(C(=O)C(C)C)CC4)n4ncnc(N)c34)cc2)c(=O)n(-c2cccc(F)c2)c1=O [Example 73, N-(4-(4-Amino-7-(1-isobutyrylpiperidin-4-yl)pyrrolo[1,2-f][1,2,4]triazin-5-yl)phenyl)-1-ethyl-3-(3-fluorophenyl)-2,4-dioxo-1,2,3,4-tetrahydropyrimidine-5-carboxamide] |
| ≥ 8.30 | < 7.00 | CC(C)C(=O)N1CCC(c2cc(-c3ccc(NC(=O)c4cn(C(C)C)c(=O)n(-c5cc(F)ccc5F)c4=O)cc3)c3c(N)ncnn23)CC1 [Example 76, N-(4-(4-Amino-7-(1-isobutyrylpiperidin-4-yl)pyrrolo[1,2-f][1,2,4]triazin-5-yl)phenyl)-3-(2,5-difluorophenyl)-1-isopropyl-2,4-dioxo-1,2,3,4-tetrahydropyrimidine-5-carboxamide] |
| ≥ 8.30 | < 7.00 | Cc1cc(NC(=O)c2cn(C(C)C)c(=O)n(-c3ccccc3)c2=O)ccc1-c1cc(C2CCN(C(=O)C(C)C)CC2)n2ncnc(N)c12 [Example 77, N-(4-(4-Amino-7-(1-isobutyrylpiperidin-4-yl)pyrrolo[1,2-f][1,2,4]triazin-5-yl)-3-methylphenyl)-1-isopropyl-2,4-dioxo-3-phenyl-1,2,3,4-tetrahydropyrimidine-5-carboxamide] |
| ≥ 8.30 | < 7.00 | Cc1cc(C(=O)N(C)C)ncc1-c1cc(-c2ccc(NC(=O)c3cn(C(C)C)c(=O)n(-c4ccccc4)c3=O)cc2)c2c(N)ncnn12 [Example 85, N-(4-(4-amino-7-(6-(dimethylcarbamoyl)-4-methylpyridin-3-yl)pyrrolo[1,2-f][1,2,4]triazin-5-yl)phenyl)-1-isopropyl-2,4-dioxo-3-phenyl-1,2,3,4-tetrahydropyrimidine-5-carboxamide] |
| ≥ 8.30 | < 7.00 | CC(C)C(=O)N1CCC(c2cc(-c3ccc(NC(=O)c4cn(C(C)C)c(=O)n(-c5cccc(C#N)c5)c4=O)cc3)c3c(N)ncnn23)CC1 [Example 91, N-(4-(4-Amino-7-(1-isobutyrylpiperidin-4-yl)pyrrolo[2,1-f][1,2,4]triazin-5-yl)phenyl)-3-(3-cyanophenyl)-1-isopropyl-2,4-dioxo-1,2,3,4-tetrahydropyrimidine-5-carboxamide] |
| ≥ 8.30 | < 7.00 | CC(C)n1cc(C(=O)Nc2ccc(-c3cc(C4CN(C(=O)C5CC5)C4)n4ncnc(N)c34)cc2)c(=O)n(-c2ccccc2)c1=O [Example 94, N-(4-(4-amino-7-(1-(cyclopropanecarbonyl)azetidin-3-yl)pyrrolo[2,1-f][1,2,4]triazin-5-yl)phenyl)-1-isopropyl-2,4-dioxo-3-phenyl-1,2,3,4-tetrahydropyrimidine-5-carboxamide] |
| ≥ 8.30 | < 7.00 | CC(C)n1cc(C(=O)Nc2ccc(-c3cc(CN4CCOCC4)n4ncnc(N)c34)cc2)c(=O)n(-c2ccccc2)c1=O [Example 95, N-(4-(4-Amino-7-(morpholinomethyl)pyrrolo[1,2-f][1,2,4]triazin-5-yl)phenyl)-1-isopropyl-2,4-dioxo-3-phenyl-1,2,3,4-tetrahydropyrimidine-5-carboxamide] |
| ≥ 8.30 |  | Cc1c(-c2ccnn2C)c(=O)c(C(=O)Nc2ccc(-c3cc(C4CCN(C(=O)C(C)C)CC4)n4ncnc(N)c34)cc2)cn1C(C)C [Example 97, N-(4-(4-Amino-7-(1-isobutyrylpiperidin-4-yl)pyrrolo[2,1-f][1,2,4]triazin-5-yl)phenyl)-1-isopropyl-6-methyl-5-(1-methyl-1H-pyrazol-5-yl)-4-oxo-1,4-dihydropyridine-3-carboxamide] |
| ≥ 8.30 | < 7.00 | Cc1c(-c2cnn(C)c2)cc(C(=O)Nc2ccc(-c3cc(C4CCN(C(=O)C(C)C)CC4)n4ncnc(N)c34)cc2)c(=O)n1-c1ccccc1 [Example 107, N-{4-[4-Amino-7-(1-isobutyrylpiperidin-4-yl)pyrrolo[2,1-f][1,2,4]triazin-5-yl]phenyl}-6-methyl-5-(1-methyl-1H-pyrazol-4-yl)-2-oxo-1-phenyl-1,2-dihydropyridine-3-carboxamide] |
| ≥ 8.30 | < 7.00 | Cc1c(N2CCOCC2)cc(C(=O)Nc2ccc(-c3cc(C4CCN(C(=O)C(C)C)CC4)n4ncnc(N)c34)cc2)c(=O)n1-c1ccccc1 [Example 110, N-{4-[4-Amino-7-(1-isobutyrylpiperidin-4-yl)pyrrolo[2,1-f][1,2,4]triazin-5-yl]phenyl}-6-methyl-5-morpholin-4-yl-2-oxo-1-phenyl-1,2-dihydropyridine-3-carboxamide] |
| ≥ 8.30 | < 7.00 | CC(C)C(=O)N1CCC(c2cc(-c3ccc(NC(=O)c4cc5c(n(-c6cncc(F)c6)c4=O)CCC(C)(C)C5=O)cc3)c3c(N)ncnn23)CC1 [Example 115, N-(4-(4-Amino-7-(1-isobutyrylpiperidin-4-yl)pyrrolo[1,2-f][1,2,4]triazin-5-yl)phenyl)-1-(5-fluoropyridin-3-yl)-6,6-dimethyl-2,5-dioxo-1,2,5,6,7,8-hexahydroquinoline-3-carboxamide] |
| ≥ 8.30 | < 7.00 | CC(C)C(=O)N1CCC(c2cc(-c3ccc(NC(=O)c4cc(C5CC5)nn(-c5ccccc5)c4=O)cc3)c3c(N)ncnn23)CC1 [Example 117, N-{4-[4-Amino-7-(1-isobutyrylpiperidin-4-yl)pyrrolo[2,1-f][1,2,4]triazin-5-yl]phenyl}-6-cyclopropyl-3-oxo-2-phenyl-2,3-dihydropyridazine-4-carboxamide] |
| ≥ 8.30 | < 7.00 | Cc1c(-c2ccnn2C)cc(C(=O)Nc2ccc(-c3cc(C4CCN(C(=O)C(C)C)CC4)n4ncnc(N)c34)cc2)c(=O)n1-c1ccccn1 [Example 123, N-(4-(4-Amino-7-(1-isobutyrylpiperidin-4-yl)pyrrolo[2,1-f][1,2,4]triazin-5-yl)phenyl)-6-methyl-5-(1-methyl-1H-pyrazol-5-yl)-2-oxo-2H-[1,2′-bipyridine]-3-carboxamide] |
| ≥ 8.30 | < 7.00 | Cc1c(Cl)cc(C(=O)Nc2ccc(-c3cc(C4CCN(C(=O)C(C)C)CC4)n4ncnc(N)c34)cc2)c(=O)n1-c1ccccn1 [Example 124, N-(4-(4-Amino-7-(1-isobutyrylpiperidin-4-yl)pyrrolo[2,1-f][1,2,4]triazin-5-yl)phenyl)-5-chloro-6-methyl-2-oxo-2H-[1,2′-bipyridine]-3-carboxamide] |

| SMILES | pIC50 (phosphor-Axl) | pIC50 (Tyro3) |
| --- | --- | --- |
| Cc1ccc(-c2ccc(C(=O)Nc3ccc(-c4cc(C5CCN(C(=O)C(C)C)CC5)n5ncnc(N)c45)cc3)c(=O)n2-c2ccccc2)cn1 [Example 105, N-(4-(4-Amino-7-(1-isobutyrylpiperidin-4-yl)pyrrolo[2,1-f][1,2,4]triazin-5-yl)phenyl)-6′-methyl-6-oxo-1-phenyl-1,6-dihydro-[2,3′-bipyridine]-5-carboxamide] | ≥ 8.30 |  |
